| Compound | melting point [°C] |
| --- | --- |
| Clc1ccc2c(N3CCCC4CCCC(N5CCCC5)C43)ccnc2c1 (configuration not stated) | 136 to 138 |
| COC(=O)c1cccc2c1c(S(=O)(=O)NC(C)(C)C)nn2C | 189 to 190 |
| Clc1nccc(N2CCC3(CC2)OCc2ccccc23)c1Cl | 161 |
| CCc1c(Cl)cnc(N)c1F | 71 to 72 |
| O=C(Nc1ccccc1O)C1CCc2nc[nH]c2C1 (configuration not stated) | 203 to 205 |
| COc1cc(Nc2c(C#N)cnc3cc(/C=C/CCCCN4CCOCC4)c(OC)cc23)c(Cl)cc1Cl | 99 to 100 |
| CC(Cn1nccn1)n1nnc2cc3c(=O)n(C(C)Cn4nccn4)nnc3cc2c1=O (configuration not stated) | 194 to 195 |
| CC(C)c1nccn1N=Cc1cc(C(C)(C)C)c(O)c(C(C)(C)C)c1 | 159 to 160 |
| CCCCc1c(-c2ccncc2)[nH]c(-c2ccncc2)c1C(C)=O | 93 to 95 |
| O=C(Nc1ccccc1C(=O)N1CCCCC1)N[C@@H](Cc1ccc(NC(=O)c2c(Cl)cccc2Cl)cc1)C(=O)O | 191 |
| CC(C)n1nc(-c2cc(-c3ccn[nH]3)cnc2-c2ccccc2)ccc1=O | 212 to 213 |
| O=C(c1csc2ccccc12)C1CCN(CCc2ccccc2)CC1 | 110 to 112 |
| Cc1nn(CC(=O)c2ccc(Cl)cc2)c(=O)n1-c1ccc(N2CCN(c3ccc(O)cc3)CC2)cc1 | 252 |
| CCOc1nc2c(N)nc3cccnc3c2n1CC1CCOCC1 | 197 to 200 |
| CCOc1ncc(NC(=O)Nc2c(CC)cccc2CC)c(-c2ccccc2Cl)n1 | 190 to 191 |
| CCOC(=O)[C@@H]([C@H](N)C(=O)O)[C@@H](C)O | 150 to 151 |
| CS(=O)(=O)CCS(=O)(=O)C1CCCCC1 | 89 to 91 |
| CN(C)CCN(CCN(C)C)c1cccc(-c2nc3cc(Cl)c(Cl)cc3[nH]2)c1 | 129 to 132 |
| CCCOC1(C=CCCCCC(=O)O)C=CC=CC1 (configuration not stated) | 52 to 53 |
| CCCCCc1cc(O)c2c(c1)OC(C)(C)CC2C1=CCN(Cc2ccc3ccccc3c2)CC1 (configuration not stated) | 49 to 51.5 |
| NCc1nc(-c2ncn3c2[C@@H]2CCN2C(=O)c2ccccc2-3)no1 | 211 to 214 |
| CC(=O)c1ccc(-c2cc(-c3nc4ccccc4c(=O)n3-c3ccc(Cl)cc3)sc2N2CCOCC2)cc1 | 222 to 226 |
| CC(=O)N1CC(=O)C2=C(C1)CN1NC(N3CCOCC3)=NC1=N2 | 310 to 313 |
| CCCC(=O)NN=C(C)c1ccncc1Cl | 104 |
| N#CCCCCn1cnc(NC(=S)NCC(F)(F)F)n1 | 136 to 138 |

| Compound | melting point [°C] |
| --- | --- |
| C=C(CO)C[C@](C)(O)[C@H]1CC[C@H]2[C@@H](O[Si](C)(C)C(C)(C)C)CCC[C@@]21C | 95 |
| CCc1nc2ccccc2c(N)c1C(C)=O | 145 to 148 |
| CN(C)Cc1ccc2cc(-c3nnc(CSCCOc4ccccc4)o3)ccc2c1 | 95 to 96 |
| CC(C)(C)OC(=O)N[C@@H](COS(C)(=O)=O)Cc1ccccc1 | 119 to 120 |
| O=C(N[C@H]1CCN(C(=O)c2cc(Cl)cc(Cl)c2)[C@H](Cc2ccccc2)C1)c1cc2ccccc2[nH]1 (relative stereo) | 254 |
| Cc1ncnc2c1ncn2[C@H](C)[C@](O)(Cn1cncn1)c1ccc(F)cc1F | 200 to 201 |
| CN(C)CC1CNc2cc(Cl)ccc2C1 (configuration not stated) | 107 to 110 |
| c1ccc(CCC2CCN(Cc3nc4ccccc4[nH]3)CC2)cc1 | 170 |
| N#CCCN1CCC(c2[nH]cc3cc(F)ccc23)CC1 | 100 to 101 |
| O=C1C2=C(C=C3OCCC13)CCCO2 (configuration not stated) | 101 |
| CCCCOc1ccc(CCCCCCCCC(=O)NO)cc1 | 99 to 101 |
| OCCCCCCOc1ccccc1 | 69 to 74 |
| CCOC(=O)C1=C(C)NC(=S)N(C(=O)OCC)C1c1cccc(Cl)c1 (configuration not stated) | 95 to 97 |
| CN(Cc1ccccc1)C(=O)c1cnc2c3c(c(F)cc2c1)C(=O)C(C(=O)O)C=N3 (configuration not stated) | 168 to 171 |
| O=[N+]([O-])c1ccccc1NCc1ccco1 | 85.6 |
| CN1CCN(c2ccc3ncnc(N4CCc5ccc(Cl)cc54)c3c2)CC1 | 289 to 290 |
| COc1ccc2c3c(c(=O)oc2c1)CN(CCN1CC2CCCC(C2)C1)CC3 | 102 to 103 |
| Clc1ccc2oc(CBr)cc2c1 | 70 |
| CSc1cc(C(C)=O)ccc1OCCCBr | 120 to 122 |
| CN1CC(Cl)CC2c3cccc4[nH]cc(c34)CC21 (configuration not stated) | 195 to 197 |
| C=CCN1C2CCC1C1CCC2N1C(c1ccc(C(=O)NC2CCCCC2)cc1)c1cccc(OC)c1 (configuration not stated) | 58 to 60 |
| CCOc1cc(-c2ncc3[nH]c4ccc(OCc5ccccc5)cc4c3c2COC)no1 | 139 to 140 |
| Cc1noc(C)c1-c1ccc2c(c1)ncc1ncn(-c3ccccc3C(C)(C)C)c12 | 216 |
| CCn1cc(-c2c(-c3ccccc3F)nn3ccncc23)ccc1=O | 173 to 174 |

Second part, the compound after the results:

| melting point [°C] | Compound |
| --- | --- |
| 138 to 139 | CC(C)(C)c1ccc(CC(=O)O)c(Cc2ccc(CC(=O)O)cc2)c1 |
| 160 to 165 | COc1ccc(OC)c(CCc2ccc3ncnc(N)c3c2)c1 |
| 220 to 225 | O=C(O)c1ccc(C(=O)N2Cc3ccccc3Cc3ccccc32)cc1 |
| 177 to 179 | O=C(NC(=O)c1c(F)cccc1F)Nc1cc(Cl)c(OC(F)(F)C(F)Cl)cc1Cl (configuration not stated) |
| 136 to 137 | O=C(Nc1ccc2cc(CN3CCCC3)cnc2c1F)c1ccc(-c2ccccc2)cc1F |
| 242 to 244 | Nc1ncccc1-c1nc2cc(Br)cnc2n1-c1ccc(NC(=O)c2ccccc2)cc1 |
| 101 to 108 | C[C@@H](NC(=O)c1sc(-c2ccc(C#N)cc2)nc1C(F)(F)F)[C@](O)(Cn1cncn1)c1ccc(F)cc1F |
| 149 | COc1ccc(C(=O)c2cc(Br)ccc2NC(=O)C(F)(F)F)cc1 |
| 222 | CC(C)n1cc(-c2nc(C(=O)O)c(N)nc2-c2ccc(F)cc2)ccc1=O |
| 198 | O=C(N=c1sc2cc(C(F)(F)F)ccc2n1CCO)C(F)(F)F |
| 167 to 170 | Cc1onc(NS(=O)(=O)c2cccc3ccccc23)c1Br |
| 63 to 70 | CCOCCc1cc(OC)c(-c2ccc(C[C@H](NC(=O)c3c(F)cccc3F)C(=O)O)cc2)c(OC)c1 |
| 121 to 122 | COc1ccc(-n2nc(Sc3cccc(C)c3)c(C)c(C#N)c2=O)cc1 |
| 207 to 209 | O=C(O)c1cccc(NCc2cccc(Cl)c2)c1C(=O)O |
| 252 to 255 | COCCNC(=O)c1cc(-c2ccccc2)c(=O)[nH]c1-c1c(Cl)cccc1C#N |
| 155 to 156 | Cc1ccc(NC(=O)c2cccc(C(F)(F)F)c2)cc1-c1ccc2ncncc2c1 |
| 187 to 190 | Cn1ccnc1C1=Cc2cc(OC(C)(C)C(=O)O)ccc2OC1 |
| 207 | Nc1ccc(C(=O)C=Cc2ccncc2)cc1 |
| 178 to 179 | O=C1CCC(c2ccc(CCCCNC(=O)c3cccnc3)cc2)=NN1 |
| 192 to 193 | CSc1nc(C)ccc1NC(=O)CSc1nc2ccccc2[nH]1 |
| 175 to 177 | Cc1nn(-c2cc(Oc3ccc(C#N)cc3)c(Cl)cc2F)c(=O)n1C(F)F |
| 103 to 104 | CCN(CC)C(=O)c1ccc2ccccc2c1-c1ccc(F)cc1 |
| 150 to 152 | O=[N+]([O-])c1cc(Br)ccc1N1CCc2cc(Br)ccc21 |

Source: a melting point compilation (Tetko et al.; mined from patent text by program, amines drawn as free bases though some values may be those of a salt)
